Assays:
Assay type in all cases: binding
Conditions in all cases: Compound Concentration 10 µM
panel of 442 kinases [1] = molecular target: T1, panel of 442 kinases (Homo sapiens, UniProt P11802)
T1 construct: purchased KINOMEscan
Text: (§1) We assessed the selectivity of members of this scaffold using the KINOMEscan methodology across a near comprehensive panel of 442 kinases [[18,27]].

panel of 442 kinases [2] = molecular target: T2, panel of 442 kinases (Homo sapiens, UniProt Q9NYY3)
T2 construct: purchased KINOMEscan
T2 sequence (Q9NYY3 whole entry): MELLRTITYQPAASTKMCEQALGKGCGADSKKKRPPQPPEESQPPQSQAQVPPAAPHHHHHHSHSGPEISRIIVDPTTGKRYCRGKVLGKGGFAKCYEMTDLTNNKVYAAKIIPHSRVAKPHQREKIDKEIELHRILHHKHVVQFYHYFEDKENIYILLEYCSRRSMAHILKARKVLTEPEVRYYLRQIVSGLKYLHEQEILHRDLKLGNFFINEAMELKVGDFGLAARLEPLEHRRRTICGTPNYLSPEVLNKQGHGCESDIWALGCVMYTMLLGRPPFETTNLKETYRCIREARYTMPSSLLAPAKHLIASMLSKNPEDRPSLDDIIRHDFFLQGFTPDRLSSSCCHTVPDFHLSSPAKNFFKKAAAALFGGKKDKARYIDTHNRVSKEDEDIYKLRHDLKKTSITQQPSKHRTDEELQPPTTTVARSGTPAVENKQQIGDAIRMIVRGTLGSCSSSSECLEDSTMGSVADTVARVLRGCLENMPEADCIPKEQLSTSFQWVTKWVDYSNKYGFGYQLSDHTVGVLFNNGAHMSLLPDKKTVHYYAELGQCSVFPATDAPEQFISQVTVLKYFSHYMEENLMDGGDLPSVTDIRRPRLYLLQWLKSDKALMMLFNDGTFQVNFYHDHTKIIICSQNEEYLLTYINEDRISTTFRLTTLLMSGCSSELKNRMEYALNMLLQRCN
Text: as §1

panel of 442 kinases [3] = molecular target: T3, panel of 442 kinases (Homo sapiens, UniProt P00519, E255K)
T3 construct: purchased KINOMEscan
T3 sequence (P00519 whole entry E255K): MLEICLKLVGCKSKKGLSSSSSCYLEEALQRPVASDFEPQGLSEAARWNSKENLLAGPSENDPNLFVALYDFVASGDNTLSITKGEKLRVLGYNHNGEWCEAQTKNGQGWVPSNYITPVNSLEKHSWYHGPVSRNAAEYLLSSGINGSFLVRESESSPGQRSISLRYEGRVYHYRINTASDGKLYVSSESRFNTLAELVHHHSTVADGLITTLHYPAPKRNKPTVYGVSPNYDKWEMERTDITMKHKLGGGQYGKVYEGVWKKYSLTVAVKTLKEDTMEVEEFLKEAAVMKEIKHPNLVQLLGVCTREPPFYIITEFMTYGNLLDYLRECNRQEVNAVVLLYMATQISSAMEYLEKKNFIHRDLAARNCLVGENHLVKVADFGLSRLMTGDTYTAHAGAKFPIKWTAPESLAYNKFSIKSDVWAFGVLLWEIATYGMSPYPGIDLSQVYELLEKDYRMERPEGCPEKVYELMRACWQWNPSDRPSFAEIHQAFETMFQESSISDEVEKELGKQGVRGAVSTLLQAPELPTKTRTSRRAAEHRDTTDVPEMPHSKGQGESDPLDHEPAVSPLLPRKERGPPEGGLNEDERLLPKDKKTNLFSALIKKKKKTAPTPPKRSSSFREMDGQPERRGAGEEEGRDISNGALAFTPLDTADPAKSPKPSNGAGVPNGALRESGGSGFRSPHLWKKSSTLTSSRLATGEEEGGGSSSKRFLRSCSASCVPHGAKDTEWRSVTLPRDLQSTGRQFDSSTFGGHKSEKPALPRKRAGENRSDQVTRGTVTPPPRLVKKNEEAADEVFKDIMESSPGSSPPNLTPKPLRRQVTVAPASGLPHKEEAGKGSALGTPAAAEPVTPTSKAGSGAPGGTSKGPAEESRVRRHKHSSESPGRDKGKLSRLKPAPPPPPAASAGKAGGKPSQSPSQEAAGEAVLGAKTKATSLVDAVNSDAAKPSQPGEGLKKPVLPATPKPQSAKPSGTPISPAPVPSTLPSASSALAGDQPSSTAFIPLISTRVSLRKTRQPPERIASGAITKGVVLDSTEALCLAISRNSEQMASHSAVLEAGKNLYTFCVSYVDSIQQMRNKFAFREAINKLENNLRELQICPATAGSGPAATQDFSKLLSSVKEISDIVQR
Text: as §1

panel of 442 kinases [4] = molecular target: T4, panel of 442 kinases (Homo sapiens, UniProt P42336, H1047L)
T4 construct: purchased KINOMEscan
T4 sequence (P42336 whole entry H1047L): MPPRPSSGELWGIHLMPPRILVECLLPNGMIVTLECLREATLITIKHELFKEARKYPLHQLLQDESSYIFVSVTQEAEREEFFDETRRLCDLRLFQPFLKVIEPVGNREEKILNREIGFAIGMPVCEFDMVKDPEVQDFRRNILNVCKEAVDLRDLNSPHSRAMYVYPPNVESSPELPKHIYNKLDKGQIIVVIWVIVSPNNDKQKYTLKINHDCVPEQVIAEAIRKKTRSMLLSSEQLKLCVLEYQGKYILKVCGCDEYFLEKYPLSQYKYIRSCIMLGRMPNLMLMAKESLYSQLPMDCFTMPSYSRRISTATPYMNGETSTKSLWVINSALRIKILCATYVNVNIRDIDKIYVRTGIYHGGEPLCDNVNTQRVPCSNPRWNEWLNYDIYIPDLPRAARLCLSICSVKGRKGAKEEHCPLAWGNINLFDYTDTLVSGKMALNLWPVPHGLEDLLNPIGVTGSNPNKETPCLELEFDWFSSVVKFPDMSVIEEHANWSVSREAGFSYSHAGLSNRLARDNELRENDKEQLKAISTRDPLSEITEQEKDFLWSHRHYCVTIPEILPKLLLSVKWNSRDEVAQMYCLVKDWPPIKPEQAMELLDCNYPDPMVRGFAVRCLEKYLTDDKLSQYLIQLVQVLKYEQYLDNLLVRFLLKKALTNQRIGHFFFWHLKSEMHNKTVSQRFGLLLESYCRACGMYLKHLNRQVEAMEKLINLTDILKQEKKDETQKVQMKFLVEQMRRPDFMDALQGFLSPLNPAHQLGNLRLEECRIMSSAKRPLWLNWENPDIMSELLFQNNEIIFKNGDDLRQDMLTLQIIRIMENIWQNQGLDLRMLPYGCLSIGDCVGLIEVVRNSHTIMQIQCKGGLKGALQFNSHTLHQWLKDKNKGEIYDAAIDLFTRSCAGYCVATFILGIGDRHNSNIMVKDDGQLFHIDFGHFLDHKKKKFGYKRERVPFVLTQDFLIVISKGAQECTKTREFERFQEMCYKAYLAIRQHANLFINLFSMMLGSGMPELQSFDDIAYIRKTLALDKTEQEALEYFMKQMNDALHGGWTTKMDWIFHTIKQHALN
Text: as §1

T1 sequence (P11802 whole entry): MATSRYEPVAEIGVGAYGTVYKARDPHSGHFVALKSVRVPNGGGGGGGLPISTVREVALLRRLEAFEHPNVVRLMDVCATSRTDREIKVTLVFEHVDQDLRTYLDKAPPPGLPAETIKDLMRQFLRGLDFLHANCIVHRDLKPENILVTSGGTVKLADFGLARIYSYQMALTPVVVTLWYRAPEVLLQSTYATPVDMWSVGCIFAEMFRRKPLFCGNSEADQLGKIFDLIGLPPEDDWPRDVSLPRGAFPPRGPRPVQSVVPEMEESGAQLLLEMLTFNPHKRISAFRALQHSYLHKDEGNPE

COc1cc(C(=O)N2CCC(N3CCN(C)CC3)CC2)ccc1Nc1ncc2c(n1)N(C)c1ccccc1C(=O)N2C [15 (LRRK2-IN-1)]
KINOMEscan: CDK4-cyclinD1 (panel of 442 kinases [1]): 100
KINOMEscan: CDK4-cyclinD3 (panel of 442 kinases [1]): 100
KINOMEscan: PLK2 (panel of 442 kinases [2]): 100
KINOMEscan: ABL1(E255K)-phosphorylated (panel of 442 kinases [3]): 80
KINOMEscan: PIK3CA(H1047L) (panel of 442 kinases [4]): 20

COc1cc(C(=O)N2CCC(N3CCN(C)CC3)CC2)ccc1Nc1ncc2c(n1)N1CCc3cccc(c31)C(=O)N2C [Compound 24]
KINOMEscan: PLK2 (panel of 442 kinases [2]): 8.8
KINOMEscan: PIK3CA(H1047L) (panel of 442 kinases [4]): 94

COc1cc(C(=O)N2CCC(N3CCN(C)CC3)CC2)ccc1Nc1ncc2c(n1)N(C1CCCC1)c1ccccc1C(=O)N2C [Compound 25, 11-cyclopentyl-2-((2-methoxy-4-(4-(4-methylpiperazin-1-yl)piperidine-1-carbonyl)phenyl)amino)-5-methyl-5H-benzo[e]pyrimido[5,4-b][1,4]diazepin-6(11H)-one]
KINOMEscan: CDK4-cyclinD1 (panel of 442 kinases [1]): 100
KINOMEscan: CDK4-cyclinD3 (panel of 442 kinases [1]): 73
KINOMEscan: PLK2 (panel of 442 kinases [2]): 100
KINOMEscan: ABL1(E255K)-phosphorylated (panel of 442 kinases [3]): 92
KINOMEscan: PIK3CA(H1047L) (panel of 442 kinases [4]): 100

CCOc1cc(C(=O)N2CCC(N3CCN(C)CC3)CC2)ccc1Nc1ncc2c(n1)N(C1CCCC1)c1ccccc1C(=O)N2C [Compound 26]
KINOMEscan: CDK4-cyclinD1 (panel of 442 kinases [1]): 91
KINOMEscan: CDK4-cyclinD3 (panel of 442 kinases [1]): 100
KINOMEscan: PLK2 (panel of 442 kinases [2]): 97
KINOMEscan: ABL1(E255K)-phosphorylated (panel of 442 kinases [3]): 100
KINOMEscan: PIK3CA(H1047L) (panel of 442 kinases [4]): 90

— publication PMC3914206
